# Assay results: US10464922B2, “Metalloenzyme inhibitor compounds” (NQP 1598 LTD., priority 2015, dated 2019)
# How the values were obtained:
# [1] = test system: C. albicans (ATCC 90028); assay: Minimum inhibitory concentration, in vitro broth microdilution assay (CLSI M27-A2); format: cell-based, Candida albicans; details: ATCC 90028, about 50% growth reduction, 2 days at 36° C., range tested 8-0.0078 μg/mL, values given as ranges; for MIC: Candida albicans, ATCC90028, 48 h, read-out: Candida albicans MIC
# Summary of the method: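 Inoculum of 1×10^3 to 1×10^4 CFU/mL in RPMI-1640+MOPS, exposed to 11 two-fold serial compound concentrations at 2 percent final DMSO, per CLSI M27-A2. After 2 days at 36° C, wells scored visually for growth to give MIC; tested in duplicate.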
# [2] = test system: A. fumigatus; assay: A. fumigatus MIC at 100% growth inhibition (CLSI M38-A2); format: cell-based, Aspergillus fumigatus; details: 100% growth inhibition, range tested 8-0.0078 μg/mL, values given as ranges; for MIC: Aspergillus fumigatus, read-out: Aspergillus fumigatus MIC
# Experimental: A. fumigatus MICs were determined at 100% growth inhibition following CLSI guidelines at a concentration range of 8-0.0078 μg/mL (CLSI M38-A2).
# [3] = test system: Hedgehog signaling pathway Gli Reporter-NIH3T3 cells; assay: Gli luciferase reporter assay, Hedgehog signalling pathway activity; format: cell-based; details: mShh 1 μg/ml, 27 hours
# Experimental: Hedgehog signaling pathway Gli Reporter-NIH3T3 cells were cultured in DMEM medium with 10% Calf serum, 1% Penn-strep, 500 μg/ml of Geneticin.
# To perform the Gli luciferase reporter assay, Gli Reporter—NIH3T3 cells were seeded at 25,000 cells per well into white clear-bottom 96-well microplate in 100 μl of growth medium. Cells were incubated at 37° C., and 5% CO2 for overnight. The next day, remove the medium from wells and add 45 μl of diluted inhibitor in assay medium (Opti-MEM Reduced Serum Medium+0.5% calf serum+1% non-essential amino acids+1 mM Na-pyruvate+10 mM HEPES+1% Pen/Strep) per well. Incubate cells at 37° C. in a CO2 incubator for 2 hours. Then add 5 μl of diluted mShh in assay medium to wells (final [mShh]=1 μg/ml). Add 50 μl of assay medium to cell-free control wells. Cells were treated for 27 hours. After treatment, cells were lysed and luciferase assay was performed using ONE-Step luciferase assay system: add 50 μl of One-Step Luciferase reagent per well and rock at room temperature for ˜30 minutes. Luminescence was measured using a luminometer (BioTek Synergy™ 2 microplate reader). Compounds of the present invention are active in blockade of hedgehog signalling.
Compound,MIC [1],MIC [2],Candida albicans MIC [1],Aspergillus fumigatus MIC [2],IC50 [3]
"CC[C@@H]([C@H](C)O)n1ncn(-c2ccc(N3CCN(c4ccc(-c5ccc(C(F)(F)C(O)(Cn6cnnn6)c6cccc(F)c6)nc5)cc4)CC3)cc2)c1=O (single isomer, unassigned; (+)) [64(+)]",0.01 to 0.1 µg/mL,0.25 to 1 µg/mL,–,–,160 nM
"CC[C@@H]([C@H](C)O)n1ncn(-c2ccc(N3CCN(c4ccc(-c5ccc(C(F)(F)C(O)(Cn6ncnc6C)c6cccc(F)c6)nc5)cc4)CC3)cc2)c1=O (single isomer, unassigned; (+)) [85(+)]",0.1 to 1 µg/mL,> 8 µg/mL,–,–,253 nM
N#Cc1ccc(N2CCN(c3ccc(-c4ccc(C(F)(F)[C@](O)(Cn5cnnn5)c5ccc(F)cc5F)nc4)cc3)CC2)nc1 [Example 12],0.0078 to 0.01 µg/mL,0.25 to 1 µg/mL,–,–,400 nM
"N#Cc1ccc(CN2CCN(c3ccc(-c4ccc(C(F)(F)[C@](O)(Cn5cnnn5)c5ccc(F)cc5F)nc4)cc3)CC2=O)cc1 [Example 28, (R)-4-((4-(4-(6-(2-(2,4-difluorophenyl)-1,1-difluoro-2-hydroxy-3-(1H-tetrazol-1-yl)propyl)pyridin-3-yl)phenyl)-2-oxopiperazin-1-yl)methyl)benzonitrile]",0.0078 to 0.01 µg/mL,> 8 µg/mL,–,–,580 nM
"N#Cc1ccc(N2CCN(c3ccc(-c4ccc(C(F)(F)C(O)(Cn5cnnn5)C5CC5)nc4)cc3)CC2)cc1 (stereo not drawn) [Example 36, 4-(4-(4-(6-(2-cyclopropyl-1,1-difluoro-2-hydroxy-3-(1H-tetrazol-1-yl)propyl)pyridin-3-yl)phenyl)piperazin-1-yl) benzonitrile]",0.0078 to 0.01 µg/mL,> 8 µg/mL,–,–,850 nM
"CC[C@@H]([C@H](C)O)n1ncn(-c2ccc(N3CCN(c4ccc(-c5ccc(C(F)(F)C(O)(Cn6cccn6)c6ccc(F)cc6F)nc5)cc4)CC3)cc2)c1=O (stereo partly drawn) [Example 101, 4-(4-(4-(4-(6-(2-(2,4-difluorophenyl)-1,1-difluoro-2-hydroxy-3-(1H-pyrazol-1-yl)propyl)pyridin-3-yl)phenyl)piperazin-1-yl)phenyl)-2-((2S,3S)-2-hydroxypentan-3-yl)-2,4-dihydro-3H-1,2,4-triazol-3-one]",0.1 to 1 µg/mL,> 8 µg/mL,–,–,217 nM
CC[C@@H]([C@H](C)O)n1ncn(-c2ccc(N3CCN(c4ccc(-c5ccc(C(F)(F)C(O)(Cn6nccn6)c6cccc(Cl)c6)nc5)cc4)CC3)cc2)c1=O (stereo partly drawn) [Example 125],> 8 µg/mL,> 8 µg/mL,–,–,92 nM
"CC[C@@H]([C@H](C)O)n1ncn(-c2ccc(N3CCN(c4ccc(-c5ccc(C(F)(F)C(O)(Cn6cccn6)c6cccc(Cl)c6)nc5)cc4)CC3)cc2)c1=O (stereo partly drawn) [Example 126, 4-(4-(4-(4-(6-(2-(3-chlorophenyl)-1,1-difluoro-2-hydroxy-3-(1H-pyrazol-1-yl)propyl)pyridin-3-yl)phenyl)piperazin-1-yl)phenyl)-2-((2S,3S)-2-hydroxypentan-3-yl)-2,4-dihydro-3H-1,2,4-triazol-3-one]",1 to 8 µg/mL,> 8 µg/mL,–,–,190 nM

# Further lines, with some results ahead:
MIC [1],MIC [2],Candida albicans MIC [1],Aspergillus fumigatus MIC [2],Compound,IC50 [3]
–,–,≤0.0078 to 0.010 µg/mL,0.062 to 0.25 µg/mL,CC[C@@H]([C@H](C)O)n1ncn(-c2ccc(N3CCN(c4ccc(-c5ccc(C(F)(F)C(O)(Cn6cnnn6)c6ccccc6F)nc5)cc4)CC3)cc2)c1=O (stereo partly drawn) [38(+)],120 nM
–,–,0.10 to 1.0 µg/mL,>8 µg/mL,CC[C@@H]([C@H](C)O)n1ncn(-c2ccc(N3CCN(c4ccc(-c5ccc(C(F)(F)C(O)(Cn6cnnn6)c6ccccc6F)nc5)cc4)CC3)cc2)c1=O (stereo partly drawn) [38(−)],59 nM
> 8 µg/mL,> 8 µg/mL,–,–,CC[C@@H]([C@H](C)O)n1ncn(-c2ccc(N3CCN(c4ccc(-c5ccc(C(F)(F)C(O)(Cn6cnc(C(F)(F)F)n6)c6ccccc6F)nc5)cc4)CC3)cc2)c1=O (stereo partly drawn) [106(+)],310 nM
0.0078 to 0.01 µg/mL,1 to 4 µg/mL,–,–,"CC[C@@H]([C@H](C)O)n1ncn(-c2ccc(N3CCN(c4ccc(-c5ccc(C(F)(F)[C@](O)(Cn6cnnn6)c6ccc(F)cc6F)nc5)cc4)CC3)cc2)c1=O [Example 20, 4-(4-(4-(4-(6-((R)-2-(2,4-difluorophenyl)-1,1-difluoro-2-hydroxy-3-(1H-tetrazol-1-yl)propyl)pyridin-3-yl)phenyl)piperazin-1-yl)phenyl)-2-((2S,3S)-2-hydroxypentan-3-yl)-2,4-dihydro-3H-1,2,4-triazol-3-one]",190 nM
> 8 µg/mL,> 8 µg/mL,–,–,"CC[C@@H]([C@H](C)O)n1ncn(-c2ccc(N3CCN(c4ccc(-c5ccc(C(F)(F)C(O)(Cn6nccn6)c6ccc(F)cc6F)nc5)cc4)CC3)cc2)c1=O (stereo partly drawn) [Example 107, 4-(4-(4-(4-(6-(2-(2,4-difluorophenyl)-1,1-difluoro-2-hydroxy-3-(2H-1,2,3-triazol-2-yl)propyl)pyridin-3-yl)phenyl)piperazin-1-yl)phenyl)-2-((2S,3S)-2-hydroxypentan-3-yl)-2,4-dihydro-3H-1,2,4-triazol-3-one]",270 nM
> 8 µg/mL,> 8 µg/mL,–,–,"CC[C@@H]([C@H](C)O)n1ncn(-c2ccc(N3CCN(c4ccc(-c5ccc(C(F)(F)C(O)(Cc6nnn[nH]6)c6ccccc6F)nc5)cc4)CC3)cc2)c1=O (stereo partly drawn) [Example 115, 4-(4-(4-(4-(6-(1,1-difluoro-2-(2-fluorophenyl)-2-hydroxy-3-(1H-tetrazol-5-yl)propyl)pyridin-3-yl)phenyl)piperazin-1-yl)phenyl)-2-((2S,3S)-2-hydroxypentan-3-yl)-2,4-dihydro-3H-1,2,4-triazol-3-one]",510 nM
> 8 µg/mL,> 8 µg/mL,–,–,"CC[C@@H]([C@H](C)O)n1ncn(-c2ccc(N3CCN(c4ccc(-c5ccc(C(F)(F)C(O)(Cn6nccn6)c6ccccc6F)nc5)cc4)CC3)cc2)c1=O (stereo partly drawn) [Example 116, 4-(4-(4-(4-(6-(1,1-difluoro-2-(2-fluorophenyl)-2-hydroxy-3-(2H-1,2,3-triazol-2-yl)propyl)pyridin-3-yl)phenyl)piperazin-1-yl)phenyl)-2-((2S,3S)-2-hydroxypentan-3-yl)-2,4-dihydro-3H-1,2,4-triazol-3-one]",160 nM
> 8 µg/mL,> 8 µg/mL,–,–,CC[C@@H]([C@H](C)O)n1ncn(-c2ccc(N3CCN(c4ccc(-c5ccc(C(F)(F)C(O)(Cn6cccn6)c6ccccc6F)nc5)cc4)CC3)cc2)c1=O (stereo partly drawn) [Example 117],92 nM
